# Columns and labels:
# Human CYP2C19 = Human CYP2C19 (Homo sapiens (Human), UniProt P33261); test: Inhibitory action on human CYP2C19; type: in vitro ADME
# Procedure: (§1) Measurement of the Inhibitory Activity on Drug-Metabolizing Enzymes (Inhibitory Action on Human CYP2C8 and Human CYP2C19)
# The reaction was carried out in a 96-well plate. The positive control substances (CYP2C8: ketoconazole, CYP2C19: tranylcypromine) were adjusted (CYP2C8: 0.6 and 6 mmol/L, CYP2C19: 0.9 and 9 mmol/L) with DMSO to concentrations that were 300 times the final concentration, and solutions were prepared (CYP2C8: 8 and 80 μmol/L, CYP2C19: 12 and 120 μmol/L) by 75× dilution with purified water that contained 2.7% acetonitrile. The test compounds were adjusted to […] with DMSO and were adjusted to 4 and 40 μmol/L by 75× dilution with purified water that contained 2.7% acetonitrile. A reaction mixture was then prepared (the numerical values are final concentrations) by the addition of potassium phosphate buffer (pH 7.4), magnesium chloride ([…]), substrate (CYP2C8: dibenzylfluorescein 1 μmol/L, CYP2C19: 3-cyano-7-ethoxycoumarin 25 μmol/L), and E. coli-expressed liver microsome CYP2C8 (Cypex, 10 pmol/L) and CYP2C19 (Cypex, 3 pmol/L). 100 μL of this reaction mixture and 50 μL of the test compound prepared as described above and the positive control solution prepared as described above were dispensed into each well and pre-incubation was carried out at 10 minutes for 37° C. The reaction was started by the addition of 50 μL NADPH solution (final concentration=1 mmol/L) and incubation was carried out for 30 minutes at 37° C. The fluorescence intensity was measured (CYP2C8: excitation wavelength=485 nm, fluorescence wavelength=538 nm; CYP2C19: excitation wavelength=409 nm, fluorescence wavelength=460 nm) immediately after the addition of the NADPH and after incubation for 30 minutes.
# Human liver cells [1] = test: Ability to reduce the mitochondrial membrane potential in cultured human hepatoma cells (JC-1); type: cell-based; details: JC-1, exposure for 24 hours, read-out: Ability to lower the mitochondrial membrane potential (IC50 (μM))
# Description: (§2) Measurement of the Cytotoxicity and Ability to Reduce the Mitochondrial Membrane Potential in Cultured Human Hepatoma Cells
# Tissue that maintains an aerobic equilibrium, e.g., the kidneys and heart, and tissue that is exposed to high drug concentrations and carries out drug metabolism, e.g., the liver, are known to be sensitive to mitochondrial dysfunction (Drug Discovery Today, 12 (17-18), 777-785, 2007). The reduction or extinction of the mitochondrial membrane potential by a drug is caused by the direct inhibition of the electron transport system, decoupling of electron transport from ATP synthase, or the opening of a mitochondrial membrane permeability transition pore. As a consequence, measurement of the mitochondrial membrane potential of liver cells can provide a parameter for hepatotoxicity.
# (§3) Human liver cells were seeded into a collagen-coated 96-well plate at a cell density of 30,000 cells/well and incubation was carried out overnight in an incubator at 37° C. in 5% CO2-95% air. The cultured cells were stained for 1 hour with 5,5′,6,6′-tetrahydro-1,1′,3,3′-tetramethyl-benzamidazolocarbocyanine iodide (JC-1) followed by treatment with the test compound. The test compound was dissolved in DMSO and then diluted with the liquid culture medium Hepatocyte Culture Medium (HCM) and added to the cells. The test compound treatment concentrations were 0, 6.25, 12.5, 25, 50, 100, 200, and 400 μmol/L. After exposure to the test compound for 24 hours, measurement was performed with a SpectraMax plate reader (Molecular Devices, LLC) at an excitation wavelength of 485 nm and a fluorescence wavelength of 538 nm and an excitation wavelength of 544 nm and a fluorescence wavelength of 590 nm. The membrane potential was determined by the ratio between the 544 nm/590 nm measurement value and the 485 nm/538 nm measurement value. After this, the ATP concentration in the cells was measured using a Celltiter Glo luminescent assay kit (Promega Corporation) in order to evaluate the cell toxicity of the test compound. The cells were lysed by the assay buffer provided with the measurement kit and the concentration of the ATP released from the cells was measured using the luciferin-luciferase enzyme activity as the index. The emission was measured using a SpectraMax plate reader. […] The ability to lower the mitochondrial membrane potential of the test compounds and the cytotoxicity of the test compounds are given in Table 3 below.
# Human liver cells [2] = test: Cytotoxicity in cultured human hepatoma cells (ATP concentration, Celltiter Glo); type: cell-based; details: 50% decline in ATP concentration, exposure for 24 hours, read-out: Toxicity for human liver cells (IC50 (μM))
# Procedure: as §2, §3
# Btk = Btk (Homo sapiens (Human), UniProt Q06187); test: Btk enzyme inhibitory activity (Z'-LYTE Kinase Assay Kit-Tyr1 peptide); type: biochemical; details: Tyr-1 peptide 4 μM, Btk 5 nM, ATP 36 μM, 1 hour at 30° C.
# Btk, sequence (Q06187 whole entry): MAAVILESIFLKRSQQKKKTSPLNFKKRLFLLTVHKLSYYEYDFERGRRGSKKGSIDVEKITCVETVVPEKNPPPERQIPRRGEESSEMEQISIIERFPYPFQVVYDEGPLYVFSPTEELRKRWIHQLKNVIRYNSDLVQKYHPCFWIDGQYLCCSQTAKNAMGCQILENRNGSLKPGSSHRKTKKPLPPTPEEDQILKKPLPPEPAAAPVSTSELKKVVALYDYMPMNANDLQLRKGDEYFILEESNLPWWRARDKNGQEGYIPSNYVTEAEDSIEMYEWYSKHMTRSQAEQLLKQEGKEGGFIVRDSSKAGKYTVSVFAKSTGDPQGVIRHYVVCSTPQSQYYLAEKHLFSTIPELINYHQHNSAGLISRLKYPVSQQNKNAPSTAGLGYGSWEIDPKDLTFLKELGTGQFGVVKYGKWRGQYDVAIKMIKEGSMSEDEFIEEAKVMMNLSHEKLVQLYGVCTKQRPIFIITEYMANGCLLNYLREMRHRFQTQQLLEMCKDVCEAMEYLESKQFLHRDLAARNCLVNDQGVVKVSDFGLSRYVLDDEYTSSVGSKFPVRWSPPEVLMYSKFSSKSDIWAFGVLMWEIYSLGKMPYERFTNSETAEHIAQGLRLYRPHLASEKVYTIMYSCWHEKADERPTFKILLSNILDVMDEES
# Procedure: The Btk enzyme inhibitory activity was measured, based on the protocol provided by the manufacturer, using Btk (Invitrogen Corporation) and the Z′-LYTE® Kinase Assay Kit-Tyr1 peptide (Invitrogen Corporation), which contained the following reagents: Tyr-1 peptide, Thy-1 phosphopeptide, 5× kinase buffer, ATP, development reagent B, development buffer, and stop reagent.
# 5 μL/well of a solution of the test compound diluted with dimethyl sulfoxide (DMSO), or DMSO, and 10 μL/well of the substrate/enzyme mixture solution were dispensed to a 96-well assay plate and a reaction was carried out for 20 minutes at 30° C. […] The enzymatic reaction was then stopped by adding 10 μL of the stop solution.
# The percent inhibition (%) by the test compound was calculated using the following equation. percent inhibition (%) of phosphorylation=1−{(AC−AX)/(AC−AB)}×100 [E1]
# Lck = Lck (Homo sapiens (Human), UniProt P06239); test: Lck inhibitory activity, selectivity for Btk (Z'-LYTE kinase assay); type: biochemical; details: ratio of the IC50 values of the individual kinases
# Lck, sequence (P06239 whole entry): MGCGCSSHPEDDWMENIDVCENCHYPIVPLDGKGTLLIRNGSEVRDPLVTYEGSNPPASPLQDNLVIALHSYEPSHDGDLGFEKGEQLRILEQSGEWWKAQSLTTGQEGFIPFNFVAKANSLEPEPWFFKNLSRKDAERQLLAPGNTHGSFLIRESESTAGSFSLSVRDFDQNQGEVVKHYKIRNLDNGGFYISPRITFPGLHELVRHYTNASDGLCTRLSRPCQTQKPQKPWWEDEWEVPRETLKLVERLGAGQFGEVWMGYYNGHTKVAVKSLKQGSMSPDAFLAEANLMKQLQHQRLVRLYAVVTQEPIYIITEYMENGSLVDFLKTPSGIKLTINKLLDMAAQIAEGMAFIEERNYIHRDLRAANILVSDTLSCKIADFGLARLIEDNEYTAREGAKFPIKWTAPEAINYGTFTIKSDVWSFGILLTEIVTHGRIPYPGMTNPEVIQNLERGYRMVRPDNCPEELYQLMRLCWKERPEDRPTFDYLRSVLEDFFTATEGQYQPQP
# Procedure: (§4) The inhibitory activity for other kinases (for example, Lck, Fyn, and LynA (all from Invitrogen Corporation) was measured in the same manner as described above using the particular kinase in place of the Btk.
# Fyn = Fyn (Homo sapiens (Human), UniProt P06241); test: Fyn inhibitory activity, selectivity for Btk (Z'-LYTE kinase assay); type: biochemical; details: ratio of the IC50 values of the individual kinases
# Fyn, sequence (P06241 whole entry): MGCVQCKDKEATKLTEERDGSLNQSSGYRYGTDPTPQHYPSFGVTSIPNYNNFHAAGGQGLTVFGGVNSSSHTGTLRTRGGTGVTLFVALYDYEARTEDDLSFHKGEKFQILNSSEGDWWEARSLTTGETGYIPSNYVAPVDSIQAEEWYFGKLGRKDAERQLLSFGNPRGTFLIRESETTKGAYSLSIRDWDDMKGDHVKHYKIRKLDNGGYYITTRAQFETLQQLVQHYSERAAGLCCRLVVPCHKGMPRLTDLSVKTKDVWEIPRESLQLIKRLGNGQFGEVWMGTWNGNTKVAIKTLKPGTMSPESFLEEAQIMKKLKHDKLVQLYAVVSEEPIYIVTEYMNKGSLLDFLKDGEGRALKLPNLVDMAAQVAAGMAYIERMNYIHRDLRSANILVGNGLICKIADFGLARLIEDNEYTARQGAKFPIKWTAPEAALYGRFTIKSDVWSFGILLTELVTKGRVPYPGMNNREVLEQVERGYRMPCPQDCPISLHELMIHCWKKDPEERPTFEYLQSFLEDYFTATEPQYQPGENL
# Procedure: as §4
# LynA = LynA (Homo sapiens (Human), UniProt P07948); test: LynA inhibitory activity, selectivity for Btk (Z'-LYTE kinase assay); type: biochemical; details: ratio of the IC50 values of the individual kinases
# LynA, sequence (P07948 whole entry): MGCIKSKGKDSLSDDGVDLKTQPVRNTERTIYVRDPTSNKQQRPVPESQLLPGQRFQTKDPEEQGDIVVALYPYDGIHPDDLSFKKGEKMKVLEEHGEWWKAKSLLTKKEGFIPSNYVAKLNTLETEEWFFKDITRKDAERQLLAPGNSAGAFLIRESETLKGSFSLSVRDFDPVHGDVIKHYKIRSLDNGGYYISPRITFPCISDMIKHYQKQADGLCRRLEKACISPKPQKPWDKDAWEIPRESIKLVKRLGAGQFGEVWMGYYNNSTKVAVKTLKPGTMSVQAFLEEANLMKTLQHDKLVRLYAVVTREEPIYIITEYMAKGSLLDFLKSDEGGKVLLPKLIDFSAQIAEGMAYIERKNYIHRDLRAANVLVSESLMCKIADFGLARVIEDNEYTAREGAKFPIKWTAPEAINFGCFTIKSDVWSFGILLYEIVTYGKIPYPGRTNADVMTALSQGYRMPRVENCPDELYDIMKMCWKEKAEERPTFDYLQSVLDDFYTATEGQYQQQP
# Procedure: as §4
# [3] = system: B cells (CD20-positive CD3-negative cells) of human PBMC; test: B cell activation using human PBMC (CD69-positive signal, FACS); type: cell-based; details: anti-IgM antibody 1 μg/mL / IL-4 3 ng/mL, 22 hours
# Procedure: (§5) Measurement of B Cell Activation or T Cell Activation Using Human PBMC
# (§6) A 10 mmol/L solution of the test compound in DMSO was dispensed into a 96-well plate (Nunc) and a 5× dilution series was prepared using DMSO. A 100× concentration test compound dilution solution was prepared by an additional 10× dilution with RPMI1640 medium (contained 10% HI-FBS, 1% penicillin). Human peripheral blood mononuclear cells (PBMC) were diluted with the medium to provide a density of 2×10^6 cells/mL. 396 μL of the cell suspension was added to a 96-well plate into which 4 μL of the 100× concentration test compound dilution solution or the solvent (10% DMSO) had already been introduced and incubation was performed for 10 minutes at 37° C. and 5% CO2. 10 μL of an anti-IgM antibody (Southern Biotech)/IL-4 (R & D Systems) solution or an anti-CD3/CD28 antibody bead suspension (Invitrogen Corporation) was added to a 96-well plate and 90 μL of the cell suspension prepared as described above was also added (final concentrations: anti-IgM antibody=1 μg/mL, IL-4=3 ng/mL, and anti-CD3/CD28 antibody beads=2×10^6 beads/mL). 10 μL of the medium was added to the unstimulated sample wells in place of these stimulating substances, and standing at 37° C. and 5% CO2 was again performed. Incubation was carried out for 16 hours in the case of the evaluation of T cell activation and for 22 hours in the case of the evaluation of B cell activation. 100 μL Cytofix Buffer (BD Biosciences) was added; holding for 15 minutes at 37° C. was performed; centrifugation for 10 minutes at 1500 rpm was carried out; and the supernatant was removed. 200 μL of Perm buffer II (BD Biosciences) at −20° C. was added; holding for 30 minutes on ice was performed; centrifugation for 10 minutes at 1500 rpm was carried out; and the supernatant was removed. 0.5 mL Stain buffer (BD Biosciences) was added and centrifugation was carried out for 10 minutes at 1500 rpm. 100 μL of a mixed antibody solution was added and incubation was performed for 30 minutes on ice in the dark. The antibody was the 10× dilution with Stain Buffer of the 1:1:1 mixture of PerCP-labeled anti-CD3 antibody (BD Biosciences), AF488-labeled anti-CD20 antibody (BD Biosciences), and PE-labeled anti-CD69 antibody (BD Biosciences). 0.4 mL Stain Buffer was added and the supernatant was removed. […] The CD69-positive signal (average fluorescence intensity) of the CD20-positive CD3-negative cells (B cells) or CD3-positive CD20-negative cells (T cells) was measured. After subtracting the value for the unstimulated sample, the % inhibition with reference to the value for the stimulated control sample was determined. The % inhibition was graphically plotted using Prism (ver. 5.01 J, GraphPad Software) and the IC50 value was determined.
# [4] = system: T cells (CD3-positive CD20-negative cells) of human PBMC; test: T cell activation using human PBMC (CD69-positive signal, FACS); type: cell-based; details: anti-CD3/CD28 antibody beads, 16 hours
# Procedure: as §5, §6
# Human CYP2C8 = Human CYP2C8 (Homo sapiens (Human), UniProt P10632); test: Inhibitory action on human CYP2C8; type: in vitro ADME
# Human CYP2C8, sequence (P10632 whole entry): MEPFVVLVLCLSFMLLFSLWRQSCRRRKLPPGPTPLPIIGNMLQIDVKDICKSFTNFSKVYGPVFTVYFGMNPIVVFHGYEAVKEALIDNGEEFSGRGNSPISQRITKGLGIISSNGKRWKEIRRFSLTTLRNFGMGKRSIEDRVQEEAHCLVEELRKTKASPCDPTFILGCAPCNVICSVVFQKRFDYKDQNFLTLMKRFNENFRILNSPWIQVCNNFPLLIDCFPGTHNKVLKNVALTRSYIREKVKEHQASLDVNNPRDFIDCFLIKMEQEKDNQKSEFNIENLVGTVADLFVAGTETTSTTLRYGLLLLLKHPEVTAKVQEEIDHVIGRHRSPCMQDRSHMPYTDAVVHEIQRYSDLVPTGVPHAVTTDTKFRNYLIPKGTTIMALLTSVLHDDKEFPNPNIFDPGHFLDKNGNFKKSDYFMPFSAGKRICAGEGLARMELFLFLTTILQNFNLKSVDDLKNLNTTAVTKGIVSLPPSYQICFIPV
# Procedure: as §1
# The reaction was carried out in a 96-well plate. […] 100 μL of this reaction mixture and 50 μL of the test compound prepared as described above and the positive control solution prepared as described above were dispensed into each well and pre-incubation was carried out at 10 minutes for 37° C. The reaction was started by the addition of 50 μL NADPH solution (final concentration=1 mmol/L) and incubation was carried out for 30 minutes at 37° C.
# [5] = Stability in the rat liver microsome; details: 0.5 mg/mL microsomes, NADPH, 15 minutes at 37° C.
# Procedure: (§7) Evaluation of the Stability in the Rat and Human Liver Microsome
# (§8) A 0.25 mmol/L solution was prepared by diluting the test compound (10 mmol/L DMSO solution, 5 μL) with an aqueous 50% acetonitrile solution (195 μL).
# (§9) 20 μL was collected immediately after the start and the reaction was stopped by the addition to 180 μL of acetonitrile that contained an internal standard (warfarin). 20 μL of this solution was stirred with 180 μL of an aqueous 50% acetonitrile solution on a filter plate for protein depletion followed by suction filtration, and the filtrate was used as the standard sample.
# (§10) The previously indicated reaction solution was incubated for 15 minutes at 37° C., and 20 μL was then added to 180 μL cold acetonitrile (contained the internal standard warfarin) to stop the reaction. 20 μL of this was stirred with 180 μL of an aqueous 50% acetonitrile solution on a filter plate for protein depletion followed by suction filtration, and the filtrate was used as the standard sample.
# [6] = Stability in the human liver microsome; details: 0.5 mg/mL microsomes, NADPH, 15 minutes at 37° C.
# Procedure: as §7, §8, §9, §10
# Human CYP2C19, sequence (P33261 whole entry): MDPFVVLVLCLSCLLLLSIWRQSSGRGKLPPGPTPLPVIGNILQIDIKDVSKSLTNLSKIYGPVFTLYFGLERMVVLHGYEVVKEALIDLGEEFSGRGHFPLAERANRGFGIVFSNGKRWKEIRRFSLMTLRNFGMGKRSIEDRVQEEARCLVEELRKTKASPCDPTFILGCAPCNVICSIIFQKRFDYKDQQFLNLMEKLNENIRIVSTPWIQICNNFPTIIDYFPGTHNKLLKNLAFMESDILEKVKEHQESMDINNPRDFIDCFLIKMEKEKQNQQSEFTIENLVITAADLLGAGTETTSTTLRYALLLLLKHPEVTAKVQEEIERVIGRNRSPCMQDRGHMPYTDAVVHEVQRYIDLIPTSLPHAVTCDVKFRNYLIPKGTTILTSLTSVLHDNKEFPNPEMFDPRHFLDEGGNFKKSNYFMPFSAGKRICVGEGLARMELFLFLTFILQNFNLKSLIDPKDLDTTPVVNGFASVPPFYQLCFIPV
Compound,IC50 (Human CYP2C19) [µM],IC50 (Human liver cells [1]) [µM],IC50 (Human liver cells [2]) [µM],IC50 (Btk) [µM],Lck[IC50]/Btk[IC50] (Lck),Fyn[IC50]/Btk[IC50] (Fyn),LynA[IC50]/Btk[IC50] (LynA),IC50 [3] [µM],IC50 [4] [µM],IC50 (Human CYP2C8) [µM],Residual ratio (%) in the rat liver microsome [5] [%],Residual ratio (%) in the human liver microsome [6] [%]
"C=CC(=O)N1CCC[C@@H](n2nc(-c3ccc(Oc4ccccc4)cc3)c3c(N)ncnc32)C1 [Comparative compound A, reference compound]",5.6,39,78,,,,,,,,,
"CC#CC(=O)N1CC[C@@H](n2c(=O)n(-c3ccc(C(=O)c4ccccc4)cc3)c3c(N)ncnc32)C1 [Example 19(40), 6-amino-7-(4-benzoylphenyl)-9-[(3R)-1-(2-butynoyl)-3-pyrrolidinyl]-7,9-dihydro-8H-purin-8-one]",,,,0.011,,,,,,,,
"C=CC(=O)N1CCC(Cn2c(=O)n(-c3ccc(Oc4ccccc4)cc3)c3c(N)ncnc32)CC1 [Example 8(14), 9-[(1-acryloyl-4-piperidinyl)methyl]-6-amino-7-(4-phenoxyphenyl)-7,9-dihydro-8H-purin-8-one]",> 10,,,0.004,220,2500,1767,0.023,> 10,> 10,,
"CN(C)C/C=C/C(=O)N1CC[C@@H](n2c(=O)n(-c3ccc(Oc4ccccc4)cc3)c3c(N)ncnc32)C1 [Example 11(3), 6-amino-9-{(3R)-1-[(2E)-4-(dimethylamino)-2-butenoyl]-3-pyrrolidinyl}-7-(4-phenoxyphenyl)-7,9-dihydro-8H-purin-8-one]",> 10,,,0.014,19,236,143,0.032,> 10,> 10,,
"C#CC(=O)N1CCC(n2nc(-c3ccc(Oc4ccccc4)cc3)c3c(N)ncnc32)C1 (centres unmarked) [Comparative compound B, reference compound]",8.1,< 6.25,< 6.25,,,,,,,6.9,50.6,55.9
"CC#CC(=O)N1CC[C@@H](n2c(=O)n(-c3ccc(Oc4ccccc4)cc3)c3c(N)ncnc32)C1 [Example 19(2), 6-amino-9-[(3R)-1-(2-butynoyl)-3-pyrrolidinyl]-7-(4-phenoxyphenyl)-7,9-dihydro-8H-purin-8-one]",> 10,200,135,,,,,0.061,> 10,> 10,,
"CC#CC(=O)N1CCC(n2c(=O)n(-c3ccc(Oc4ccccc4)cc3)c3c(N)ncnc32)C1 (centres unmarked) [Example 19(9), 6-amino-9-[1-(2-butynoyl)-3-pyrrolidinyl]-7-(4-phenoxyphenyl)-7,9-dihydro-8H-purin-8-one]",,181,97,,,,,,,,,
"CN(C)C/C=C/C(=O)N1CCC(n2c(=O)n(-c3ccc(Oc4ccccc4)cc3)c3c(N)ncnc32)C1 (centres unmarked) [Example 11(24), 6-amino-9-{1-[(2E)-4-(dimethylamino)-2-butenoyl]-3-pyrrolidinyl}-7-(4-phenoxyphenyl)-7,9-dihydro-8H-purin-8-one]",,347,213,,,,,,,,88.5,100

# From patent publication US9879013B2, “Purinone derivative” (ONO PHARMACEUTICAL CO., LTD., priority 2010, dated 2018)
